These results are taken from patent EP0092173A1, “11-Beta-chlorosteroids, process for their preparation and pharmaceutical compositions containing them” (SCHERING AKTIENGESELLSCHAFT, priority 1982, dated 1983).

For one assay, the target named is Androgen-Rezeptor (Homo sapiens, UniProt P10275). As to the kind of experiment: Androgen receptor test (competition factor). The format is binding. The note with it: assessment in words, based on the competition factor.
The subject of assay [1] is infantilen weiblichen Kaninchen. Kind of assay: Clauberg test for progestational (gestagenic) activity after oral administration. Format: in vivo. The note with it: for McPhail: infantile female rabbits; for Schwellendosis (McPhail 1,5) für die gestagene Wirkung: minimum amount for a positive effect (McPhail 1,5). The source says: Die gestagene Wirkung wurde im üblichen Clauberg-Test nach oraler Applikation an infantilen weiblichen Kaninchen ermittelt.
Die zur Erzielung eines positiven Effekts benötigte Mindestmenge wird durch den McPhail-Wert 1,5 ausgedrückt.
In der folgenden Tabelle werden die Ergebnisse des Tests zusmmengestellt.

Sequence of Androgen-Rezeptor (P10275 whole entry): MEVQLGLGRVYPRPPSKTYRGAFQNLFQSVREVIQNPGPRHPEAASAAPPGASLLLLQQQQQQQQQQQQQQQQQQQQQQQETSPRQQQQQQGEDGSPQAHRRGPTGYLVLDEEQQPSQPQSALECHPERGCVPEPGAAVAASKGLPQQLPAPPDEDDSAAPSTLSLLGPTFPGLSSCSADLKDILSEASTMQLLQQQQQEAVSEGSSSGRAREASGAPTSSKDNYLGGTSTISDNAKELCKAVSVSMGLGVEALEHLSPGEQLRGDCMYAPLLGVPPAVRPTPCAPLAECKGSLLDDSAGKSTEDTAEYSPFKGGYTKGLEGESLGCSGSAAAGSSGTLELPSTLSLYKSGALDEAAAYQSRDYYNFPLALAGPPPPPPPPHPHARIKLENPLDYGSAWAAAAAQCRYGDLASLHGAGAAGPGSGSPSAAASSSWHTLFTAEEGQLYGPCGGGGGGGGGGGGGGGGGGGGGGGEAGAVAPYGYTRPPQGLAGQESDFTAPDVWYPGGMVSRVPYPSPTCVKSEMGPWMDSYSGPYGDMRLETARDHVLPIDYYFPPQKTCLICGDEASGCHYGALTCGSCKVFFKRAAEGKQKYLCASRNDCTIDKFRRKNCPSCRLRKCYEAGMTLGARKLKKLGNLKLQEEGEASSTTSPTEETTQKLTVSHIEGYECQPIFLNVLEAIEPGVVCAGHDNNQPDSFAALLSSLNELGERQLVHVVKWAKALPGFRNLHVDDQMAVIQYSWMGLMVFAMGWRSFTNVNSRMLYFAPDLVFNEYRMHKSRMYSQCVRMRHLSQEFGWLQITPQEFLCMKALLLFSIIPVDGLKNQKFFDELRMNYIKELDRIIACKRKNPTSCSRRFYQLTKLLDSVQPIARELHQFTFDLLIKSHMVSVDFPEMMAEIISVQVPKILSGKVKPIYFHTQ

Regarding `CC[C@]12C[C@H](Cl)[C@H]3[C@@H](CCC4=CC(=O)CC[C@@H]43)[C@@H]1CC[C@@]2(O)C#CCl` [Verbindung A, 11ß-Chlor-17α-chlorethinyl-17ß-hydroxy-18-methyl-4-östren-3-on], the “androgene Nebenwirkung” value on Androgen-Rezeptor is “nur eine ganz geringfügige androgene Nebenwirkung”. Also, the McPhail in assay [1] (Dosis 0,01 mg) is reported as 1,9; in assay [1] (Dosis 0,1 mg), 3,3; in assay [1] (Dosis 0,03 mg) it was 3,0; in assay [1] (Dosis 0,003 mg) it was 1,2. For the same compound, in assay [1], the “Schwellendosis (McPhail 1,5) für die gestagene Wirkung” value is recorded as ~0,003 mg.

In the case of `C#C[C@]1(O)CC[C@H]2[C@@H]3CCC4=CC(=O)CC[C@@H]4[C@H]3[C@@H](Cl)C[C@@]21CC` [Verbindung B, 11ß-Chlor-17α-ethinyl-17ß-hydroxy-18-methyl-4-östren-3-on, reference compound], on Androgen-Rezeptor, the “androgene Nebenwirkung” value is on record as “noch schwach androgen wirksam”. In addition, the values for the McPhail in assay [1] (Dosis 0,01 mg), in assay [1] (Dosis 0,03 mg) and in assay [1] (Dosis 0,003 mg) were 1,4, 2,5 and 1,1, respectively. The “Schwellendosis (McPhail 1,5) für die gestagene Wirkung” value in assay [1] is ~0,01 mg.
